Earlier results as cited in PMC4452912 (Viruses, 2015).

How the values were obtained:
DENV, HCV, and HIV = system: DENV, HCV, and HIV; set-up: method as in ref 3 = [3]; conditions: cited from earlier work
[1] = mouse, in vivo; cited from earlier work
DENV-2 = system: DENV-2; set-up: method as in ref 16 = [16]; conditions: DENV-2 ADE mouse model; cited from earlier work

Structure (SMILES) | concentrations required for broad-spectrum antiviral activity in vitro (DENV, HCV, and HIV) [µM] | thymus effect [1] | dose range promoting survival (DENV-2) [mg/kg]
CCCCN1C[C@H](O)[C@@H](O)[C@H](O)[C@H]1CO [NB-DNJ, N-butyl-deoxynojirimycin] | > 30 | thymus weight loss | 
COCCCCCCCCCN1C[C@H](O)[C@@H](O)[C@H](O)[C@H]1CO [UV-4] |  |  | 10 to 20
